# Where two headings read alike, the source gives them in different places.
# Tests used:
# [1] = system: myeloid centers in the spleen; conditions: 10 mg/kg of DXR; cited from earlier work
# [2] = repeated administration of graded doses of F-DXR and L-DXR; type: in vivo, mice; conditions: mouse, in vivo, iv, 10 mg/kg, read-out: % Surviving; for survival at 1008 h: day 42, 10 mg/kg
# Protocol: (§1) L-DXR was prepared as in Example I, to final DXR concentrations of 0.5, 0.75, and 1.0 mg/ml, corresponding to phospholipid concentrations of 8, 12, and 16 μmole/ml, respectively, and cholesterol concentrations of 3.2, 4.8, and 6.4 μmole/ml, respectively. Free DXR (F-DXR) was prepared in sterile, pyrogen-free physiologic saline solution to final concentrations of 0.5, 0.75, and 1 mg/ml.
# (§2) Sabra mice were divided into groups of 15 mice. Three different doses of either F-DXR or L-DXR were tested: 5, 7.5, and 10 mg/kg body weight. Each dose level was tested on 15 male and 15 female mice. Treatment was administered as a bolus injection through the tail vein on days 0, 14, 28, 42, 56, 70, 84, and 98 of the experiment. The pulsed injection scheme was used for the purpose of achieving high cumulative doses, prolonging the period of exposure of the animals to the drug, and mimicking the way DXR is usually administered in clinical practice. In view of the toxicity observed after single injection (Example XI), DXR was administered at a maximum 10 mg/kg dosage so that the occurrence of acute toxicity would be reduced or nil. In order to avoid the overlapping myelosuppression of successive treatment, 14 days were allowed between successive injections, based on previous observations that full regeneration of the activity of myeloid centers in the spleen after treatment with 10 mg/kg of DXR occurred between 7-12 days after drug administration.
# (§3) During the course of the experiment, mice were inspected daily and survival curves were recorded. Whenever possible, dead mice were autopsied and a limited sample of organs sent for histopathological examination. Blood counts and body weights were checked weekly. The blood counts were done in a Coulter analyzer with a 20 μl sample obtained from the retro-orbital blood sinuses. One-third of the mice of each group were sacrificed on day 42, after 3 injections. A second third was sacrificed on day 84, after 6 injections. The remaining mice were sacrificed on day 180, 82 days after the 8the and last injection. Before sacrifice, the mice were bled under light ether anesthesia to obtain serum for the biochemical tests. The animals were then dissected and the removed organs, after weighing, were fixed in Bouin's solution and processed for light microscopy examination with hematoxylin-eosin-phosphomolybdic acid: light green stain.
# (§4) (c) Effects on Body and Organ Weights. […] The weight measurements were made 42, 84, and 180 days after initial drug injection. The body and organ weights are expressed in percent relative to untreated mice. The percent survivors at each of the three time points is indicated at the top in the table; the dashes (-) indicate no survivors.
# Sabra mice = experiment: as above; type: in vivo
# Protocol: as §1, §2, §3, §4
# [3] = cited from earlier work
# human cancer patients = experiment: clinical trials with L-DXR in cancer patients; conditions: in vivo
# Protocol: Eight cancer patients have been treated with the L-DXR composition of Example III. The administration of the drug was done using a 120 ml "Voluset" at a concentration of approximately 0.5 mg/ml in isotonic saline and at a rate of 2-3 ml per min. For intraarterial injections, peristaltic pumps were used, with the rate of infusion being ~1.5 ml/min. […] This was done taking advantage of previously implanted pumps. In both patients, the perfusion of the liver with the pump was previously examined with a Tc-99 labeled macroaggregated albumin scan.
# [4] = single injection survival with graded doses of F-DXR and L-DXR; design: species or system mice; conditions: mouse, in vivo, iv, 90 days
# Protocol: L-DXR was prepared as in Example I, to final DXR concentrations of 1, 1.5, 2, and 2.5 mg/ml, with corresponding phospholipid concentrations of 16, 24, 32, and 40 μmole/ml, respectively, and cholesterol concentrations of 6.4, 9.6, 12.8, and 16 μmole/ml, respectively. Free DXR (F-DXR) was prepared in sterile, pyrogen-free physiologic saline solution to final concentrations of 1, 1.5, 2, and 2.5 mg/ml.
# BALB/c male mice were treated intravenously with 4 different doses of F-DXR and L-DXR: 10, 15, 20, and 25 mg/kg, by administering about 1% total animal weight of the corresponding F-DXR or L-DXR formulation. […] No mortality was registered among animals treated with 15 and 10 mg/kg of L-DXR and 60% of the mice injected with 20 mg/kg survived throughout 90 days. F-DXR caused 100% of mortality in the groups injected with 25, 20, and 15 mg/kg and 20% mortality in the group receiving 10 mg/kg.
# [5] = organ distribution of DXR after administration free or in liposomes; type: in vivo
# [6] = liposome form, animals; cited from earlier work
# [7] = heart, read-out: DXR level in Heart
# [8] = intestine, read-out: DXR level in Intestine
# [9] = kidney, read-out: DXR level in Kidney
# [10] = liver, read-out: DXR level in Liver
# [11] = lungs, read-out: DXR level in Lungs
# [12] = skeletal muscle, read-out: DXR level in Skeletal Muscle
# [13] = spleen, read-out: DXR level in Spleen
compound,measurement,setting,value
"COc1cccc2c1C(=O)c1c(O)c3c(c(O)c1C2=O)C[C@@](O)(C(=O)CO)C[C@@H]3O[C@H]1C[C@H](N)[C@H](O)[C@H](C)O1 [DXR, doxorubicin]",full regeneration of myeloid centers in the spleen,[1],7 to 12 days
same,survival at 1008 h,[2]; female,93%
same,survival at 2016 h,"[2]; female, day 84, 10 mg/kg",27%
same,survival at 1008 h,[2]; male,87%
same,lower limb weakness,Sabra mice; 10 mg/kg,marked weakness of the lower limbs
same,"organ weights (liver, spleen, kidneys, heart)",Sabra mice; 10 mg/kg,substantial weight reduction
same,"mortality rates, all groups","Sabra mice; 5, 7.5 and 10 mg/kg",Significant mortality rates
same,white cell count,Sabra mice; 7 and 14 days after each injection,no significant differences between the F-DXR and the L-DXR treated groups
same,findings in animals dying,Sabra mice; 7.5 and 5 mg/kg,"pleural and peritoneal effusions, cardiomegaly, and lung congestion"
same,"Body weight, percent relative to untreated mice","Sabra mice; female, day 42, 10 mg/kg",95%
same,"Heart weight, percent relative to untreated mice","Sabra mice; female, day 42, 10 mg/kg",97%
same,"Kidneys weight, percent relative to untreated mice","Sabra mice; female, day 42, 10 mg/kg",78%
same,"Liver weight, percent relative to untreated mice","Sabra mice; female, day 42, 10 mg/kg",107%
same,"Spleen weight, percent relative to untreated mice","Sabra mice; female, day 42, 10 mg/kg",78%
same,"Body weight, percent relative to untreated mice","Sabra mice; female, day 84, 10 mg/kg",84%
same,"Heart weight, percent relative to untreated mice","Sabra mice; female, day 84, 10 mg/kg",74%
same,"Kidneys weight, percent relative to untreated mice","Sabra mice; female, day 84, 10 mg/kg",91%
same,"Liver weight, percent relative to untreated mice","Sabra mice; female, day 84, 10 mg/kg",91%
same,"Spleen weight, percent relative to untreated mice","Sabra mice; female, day 84, 10 mg/kg",67%
same,sex difference in toxicity,Sabra mice; high and intermediate dosages,slight trend towards higher toxicity in male as compared to female mice
same,"Body weight, percent relative to untreated mice","Sabra mice; male, day 42, 10 mg/kg",75%
same,"Heart weight, percent relative to untreated mice","Sabra mice; male, day 42, 10 mg/kg",82%
same,"Kidneys weight, percent relative to untreated mice","Sabra mice; male, day 42, 10 mg/kg",76%
same,"Liver weight, percent relative to untreated mice","Sabra mice; male, day 42, 10 mg/kg",75%
same,"Spleen weight, percent relative to untreated mice","Sabra mice; male, day 42, 10 mg/kg",71%
same,cardiac toxicity on repeated administration,[3]; repeated administration,cumulative and irreversible cardiac damage
same,acute toxicity,[3]; soluble form,"malaise, nausea, vomiting myelosuppression, and severe alopecia"
same,fever,human cancer patients,fever was a constant feature
same,mortality at 2160 h,[4]; 10 mg/kg i.v.,20%
same,mortality at 2160 h,[4]; 15 mg/kg i.v.,100%
same,mortality at 2160 h,[4]; 20 mg/kg i.v.,100%
same,mortality at 2160 h,[4]; 25 mg/kg i.v.,100%
same,concentration at 1 h,[5]; [7],8400 ng/g
same,concentration at 5 h,[5]; [7],4200 ng/g
same,concentration at 24 h,[5]; [7],900 ng/g
same,concentration at 1 h,[5]; [8],5800 ng/g
same,concentration at 5 h,[5]; [8],3100 ng/g
same,concentration at 24 h,[5]; [8],1900 ng/g
same,concentration at 1 h,[5]; [9],31900 ng/g
same,concentration at 5 h,[5]; [9],19400 ng/g
same,concentration at 24 h,[5]; [9],6900 ng/g
same,concentration at 1 h,[5]; [10],30500 ng/g
same,concentration at 5 h,[5]; [10],16400 ng/g
same,concentration at 24 h,[5]; [10],3800 ng/g
same,concentration at 1 h,[5]; [11],13200 ng/g
same,concentration at 5 h,[5]; [11],8600 ng/g
same,concentration at 24 h,[5]; [11],3600 ng/g
same,concentration at 1 h,[5]; [12],2300 ng/g
same,concentration at 5 h,[5]; [12],2800 ng/g
same,concentration at 24 h,[5]; [12],590 ng/g
same,concentration at 1 h,[5]; [13],8100 ng/g
same,concentration at 5 h,[5]; [13],10700 ng/g
same,concentration at 24 h,[5]; [13],8800 ng/g
same,toxicity as judged by reduced mortality,[6],"significantly less toxic, as judged by reduced mortality"
